# Earlier results, collected in patent US11465999B2, “Process for preparing Alectinib or a pharmaceutically acceptable salt thereof” (FRESENIUS KABI ONCOLOGY LIMITED, priority 2017, dated 2022).
# Where a name gives a salt, the structure may show the parent alone.
# Tests used:
# [1] = high humidity: absorbs moisture to form a tetrahydrate; low humidity: dehydrates to anhydrate; drying
# [2] = in water across the whole pH range and in different solvents
Structure (SMILES),stability of crystalline form [1],solubility [2]
CCc1cc2c(cc1N1CCC(N3CCOCC3)CC1)C(C)(C)c1[nH]c3cc(C#N)ccc3c1C2=O.Cl [type II],not stable,–
CCc1cc2c(cc1N1CCC(N3CCOCC3)CC1)C(C)(C)c1[nH]c3cc(C#N)ccc3c1C2=O.Cl [type III],converts to type II on drying,–
CCc1cc2c(cc1N1CCC(N3CCOCC3)CC1)C(C)(C)c1[nH]c3cc(C#N)ccc3c1C2=O [Alectinib hydrochloride],–,insoluble
